Values joined by “and” are separate entries in the source; they are usually repeats but may differ in a detail not shown here. Equal entries are not always repeated. Active and inactive are the calls of the source.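 Rule for the calls: active = compounds giving half or more protection of infected cells from virus-caused growth loss, again on retest; inactive = the rest.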
Tested on: CEM cells HIV-1 protection, formazan growth assay
Assay: NCI AIDS Antiviral Assay
Conditions: for IC50: measured here: growth of uninfected CEM cells
Procedure, shortened: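 Steps: treat uninfected and HIV-1-infected human CEM cells at five drug levels; quantify growth by soluble formazan; retest any compound reaching 50% protection; classify actives from the retest.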

O=C1NC(=O)C(CCCCO)N1 (stereo not given)
outcome: inactive

CCC(=O)NC(OCC1(CC)COC1)(C(F)(F)F)C(F)(F)F
EC50: > 200 µM | IC50: > 200 µM

Clc1ccc(OC2CCO2)cc1Cl (stereo not given)
EC50: > 162 µM | IC50: 145 µM

COC(=O)C(=O)C(C(=O)OC)C(=O)C(=O)Nc1c(Cl)cc([N+](=O)[O-])cc1Cl (stereo not given)
EC50: > 23.4 µM | IC50: > 23.4 µM

COc1cc2c(cc1OC)C(CN)C2 (stereo not given)
EC50: > 1070 µM | IC50: 30.9 µM and 20 µM

CC1=C(C(=O)CC(=O)C(=O)Nc2ccccc2C)Sc2ccccc2N1
EC50: > 19.5 µM | IC50: > 19.5 µM

O=P(N1CC1)(N1CC1)N1CCN(P(=O)(N2CC2)N2CC2)CC1
EC50: > 200 µM | IC50: 2.24 µM

CCc1cccc(C(C)CC)c1NC(=O)C(=O)Cc1nc2ccccc2o1 (stereo not given)
EC50: > 347 µM | IC50: > 347 µM

Cc1c([O-])c([O-])c(C)c2c1OCO2.[C-]#[O+].[C-]#[O+].[C-]#[O+].[Re].c1ccc([PH+](c2ccccc2)c2ccccc2)cc1
EC50: > 15.1 µM | IC50: 6.46 µM

O=c1c(-c2nn[nH]n2)cnc2sc3cc(Cl)ccc3n12
EC50: > 200 µM | IC50: 89.1 µM

NC(CC(=O)OCc1ccccc1)C(=O)OCc1ccccc1 (stereo not given)
EC50: > 200 µM | IC50: > 200 µM

CC(=O)/C=c1\[nH]/c(=C\C=C\c2ccccc2)c(=O)n1/C=C1\C(=O)Oc2ccccc2C1=O
EC50: > 200 µM | IC50: 166 µM

FC1(F)SC2CCCCCCCCCCC2C1(F)F (stereo not given)
EC50: > 200 µM | IC50: 91.2 µM

NC1=N/N=C(c2ccccc2)\C=C/C(c2ccccc2)=N\1
EC50: > 19.1 µM | IC50: > 19.1 µM

CCCCc1ccc(Nc2nc(Cl)c3ncn(C4CC(Oc5ccc(C)cc5)C(COc5ccc(C)cc5)O4)c3n2)cc1 (stereo not given)
EC50: > 200 µM | IC50: > 200 µM

CCN(C(=O)N[C@@H](Cc1ccccc1)C(=O)N[C@@H](CC(C)C)C(=O)OC)c1ccccc1
EC50: 5.01 µM | IC50: 28.8 µM

O=C1CNc2cc(N3CCOCC3)ccc2N1
EC50: > 200 µM | IC50: 28.2 µM

O=C(Nc1ccccc1)C(c1ccccc1)N(Nc1ccccc1)c1ccccc1 (stereo not given)
outcome: inactive

CN(C)c1ccc2c(c1)-c1cc(N(C)C)ccc1C2=C/C=C1\C(=O)c2ccccc2C1=C(C#N)C#N
EC50: > 15.5 µM | IC50: > 15.5 µM

COC(=O)C1CSC(c2csc(CCN)n2)=N1 (stereo not given)
outcome: inactive

C1=C(c2ccccc2)NC2=N[C@H]3CCCC[C@@H]3N2C1c1ccccc1 (stereo not given in full)
EC50: > 126 µM | IC50: 8.13 µM

O=S(=O)(O)CC(O)CSSCC(O)CS(=O)(=O)O (stereo not given)
EC50: > 200 µM | IC50: > 200 µM

CC1(C)CC2(C)OC(=N)C1(C#N)C2(C#N)C#N (stereo not given)
EC50: > 200 µM | IC50: 2.34 µM

COC(=O)/C(C=O)=C/Sc1ccccc1
outcome: inactive

CCOC(=O)c1cc(C2CCN(Cc3ccccc3)C2=O)c(C(=O)/C=C(/C)N)[nH]1 (stereo not given)
EC50: > 200 µM | IC50: 158 µM

COC(c1ccc(C(C)(C)C)cc1)(c1ccc(C(C)(C)C)cc1)c1cc(C(O)(c2cc(C(OC)(c3ccc(C(C)(C)C)cc3)c3ccc(C(C)(C)C)cc3)c(C)cc2C)c2cc(C(OC)(c3ccc(C(C)(C)C)cc3)c3ccc(C(C)(C)C)cc3)c(C)cc2C)c(C)cc1C
outcome: inactive

Sc1nnc(-c2ccccc2Nc2ccccc2-c2nnc(S)n2-c2ccccc2)n1-c1ccccc1
EC50: > 87.1 µM | IC50: 25.1 µM

CCOP(=O)(CP(=O)(OCC)OCC)OCC.[Cl][Sn]([Cl])([c]1ccccc1)[c]1ccccc1
EC50: > 11.5 µM | IC50: 0.603 µM

O=C1OCc2c1[nH]c(=O)[nH]c2=O
EC50: > 200 µM | IC50: > 200 µM

O=c1cc(O)c2ccc(O)cc2o1
EC50: > 40.7 µM | IC50: > 40.7 µM

NC(CSSCC(N)=NC1CCCCC1)=NC1CCCCC1
EC50: > 200 µM | IC50: 95.5 µM

Cc1nc2ccccc2c(=O)n1NC(=S)Nc1ccc(Cl)cc1
EC50: > 39.8 µM | IC50: > 39.8 µM

Cc1nc2[nH]c(=O)n(OS(=O)(=O)c3ccccc3)c(=O)c2s1
EC50: > 200 µM | IC50: 35.5 µM

N#Cc1cc2c(n(C3OC(CO)C(O)C(O)C3O)c1=S)CCCCC2 (stereo not given)
EC50: > 200 µM | IC50: > 200 µM

CCC(C)NC(=S)N/N=C(\C)c1ccccn1 (stereo not given)
EC50: > 0.2 µM | IC50: 0.0158 µM

COc1cccc(NC(=O)CC(=O)n2nc(C)c(N=Nc3ccccc3F)c2C)c1
outcome: inactive

O=[N+]([O-])c1ccccc1S(=O)(=O)N1CCCc2cc(Cl)ccc21
EC50: > 200 µM | IC50: 16.6 µM

CC(=O)OC12C=CC(=O)N1c1ccccc1C(=O)O2 (stereo not given)
outcome: inactive

O=C(O)c1ccccc1-c1c2cc(Br)c(=O)c(Br)c-2oc2c(Br)c(O)c(Br)cc12
EC50: > 200 µM | IC50: 21.9 µM and 35.5 µM

N#C/C(=C\n1ccc(=O)[nH]c1=S)C(N)=O
EC50: > 200 µM | IC50: > 200 µM

O=C1CC(c2ccccc2)C2(C(=O)NC(=S)NC2=O)C(c2ccccc2)C1 (stereo not given)
EC50: > 75.9 µM | IC50: 55 µM

C=CCC(C)(O)CCC(O)(CC=C)CC=C (stereo not given)
EC50: > 200 µM | IC50: > 200 µM

COc1cc2c(cc1OC)C13CCC(O)CC1=CC2(C)O3 (stereo not given)
EC50: > 646 µM | IC50: > 646 µM

O=C(NNS(=O)(=O)c1ccccc1)c1csc(NC(=S)NC2CCCCC2)n1
EC50: > 72.4 µM | IC50: 28.8 µM

Nc1cccc(P(N)(N)=O)c1
EC50: > 200 µM | IC50: > 200 µM

O=c1n(-c2ccccc2)c(=O)n2n1C1C=CC2C2C(C1)C2(Cl)Cl (stereo not given)
outcome: inactive

O=C(NCCCNCCCNC(=O)c1cc(-c2ccccc2)nc2ccccc12)c1cc(-c2ccccc2)nc2ccccc12
EC50: > 200 µM | IC50: 2.82 µM

COC1=C(C)C(=O)c2nc(Cl)ccc2C1=O
outcome: inactive

CCOC(=O)c1cc2cc([N+](=O)[O-])ccc2oc1=O
EC50: > 105 µM | IC50: > 105 µM

Nc1nc2cc[nH]c2c(=O)[nH]1
EC50: > 661 µM | IC50: > 661 µM

O=C(O)C[C@@H](Cl)[C@H](NC(=O)OCc1ccccc1)C(=O)O
outcome: inactive

CCN(CC)CCOC(=O)c1[nH]c(=O)[nH]c(=O)c1N
EC50: > 200 µM | IC50: > 200 µM

C1CN2CCC1C1(C2)SSC2(CN3CCC2CC3)S1 (stereo not given)
EC50: > 200 µM | IC50: > 200 µM

OC12c3ccccc3C1CCCCCC21OCCCO1 (stereo not given)
EC50: > 200 µM | IC50: > 200 µM

CO[C@H](C(=O)O[C@H]1C(=O)N2CCC3CCC1C32C)c1ccccc1 (stereo not given in full)
EC50: > 759 µM | IC50: 501 µM

O=c1cn[nH]c2c(F)cccc12
EC50: > 646 µM | IC50: 617 µM

COC(=O)Cc1cc(=O)n2c3ccccc3n(C)c2c1C#N
EC50: > 24.5 µM | IC50: > 24.5 µM

COc1ccc2nc3ccccc3c(NCCCCCCN(CCCl)CCCl)c2c1
EC50: > 0.2 µM | IC50: 0.162 µM

C=C[C@@]1(C)CC2(C=C(CO)C(O)O2)Oc2c1c(=O)oc1cccc(C)c21 (stereo not given in full)
EC50: > 200 µM | IC50: 3.02 µM

O=C(O)CC1NC(/C(=C/c2ccccc2O)NC(=O)c2ccccc2)OC1=O (stereo not given)
outcome: inactive

CN1C(=O)C(O)Nc2ncncc21 (stereo not given)
EC50: > 200 µM | IC50: 32.4 µM

Cc1cccc2c1C/C(=C1\CCc3c(C)cccc31)C2=O
outcome: inactive

N#CCc1nc(-c2cc3ccccc3oc2=O)cs1
EC50: > 200 µM | IC50: 38 µM

COC(=O)c1ccc2c(c1)CC1(C2)Cc2cc3c(cc2C1)CCC3
EC50: > 200 µM | IC50: > 200 µM

NC(=O)C(=CNC(=S)Nc1ccc(S(=O)(=O)Nc2ccccn2)cc1)C(N)=O
EC50: > 200 µM | IC50: > 200 µM

CC1C(=O)C(C)C(c2ccco2)N(N=O)C1c1ccco1 (stereo not given)
EC50: > 234 µM | IC50: 132 µM
